Data reported in PMC9698716, “From Serendipity to Rational Identification of the 5,6,7,8-Tetrahydrobenzo[4,5]thieno[2,3-d]pyrimidin-4(3H)-one Core as a New Chemotype of AKT1 Inhibitors for Acute Myeloid Leukemia” (Pharmaceutics, 2022).

Experiments:
[1] = system: E4-BP1 phosphorylation at site S65; assay: Western blot of AKT signaling pathway in AML cell lines; assay type: cell-based, human; conditions: increasing concentrations (0.5 and 5 µM), 24 and 48 h, OCI-AML3, IMS-M2, OCI-AML2
Procedure: (§1) Immunoblotting was conducted as described previously. Briefly, fresh cell pellets (0.2–0.5 × 10^6/test for AML cell lines) were dissolved directly in 30–60 μL of Laemmli sample buffer 1× (1.5 M Tris-HCl pH 6.8, glycerol, β-mercaptoethanol, SDS, bromophenol blue) and boiled at 95 °C for 5 min. The proteins were separated by SDS-polyacrylamide gel electrophoresis (SDS-PAGE) on Precast 4–15% gradient gels (Biorad, Hercules, CA, USA) transferred onto nitrocellulose membranes (GE Healthcare, Piscataway, NJ, USA) and probed with specific primary antibodies followed by horseradish peroxidase-conjugated secondary antibodies (GE Healthcare Lifesciences). The polypeptides were visualized using enhanced chemiluminescence (Luminata Crescendo, Merck Millipore, Burlington, MA, USA) according to the manufacturer’s instructions. The bands were visualized using the Biorad Chemidoc and the images were processed using the image lab software (Biorad) and Adobe Photoshop (Ps CC 2019). β-actin expression levels were used as a control for protein loading, as indicated.
(§2) The primary antibodies used for western blot analyses are the following: mouse monoclonal anti-human β-actin (Clone AC-15; dilution 1:5000) from Sigma Aldrich (St. Louis, MO, USA); rabbit monoclonal anti-human Cleaved poly (ADP-ribose) polymerase (c-PARP) (Clone Asp 214; dilution 1:1000); rabbit monoclonal phospho-Akt (Ser473) (clone D9E, dilution 1.500); rabbit polyclonal phospho-mTOR (Ser2448) (dilution 1:500); rabbit polyclonal phospho-4E-BP1 (Ser65) (dilution 1:500); rabbit monoclonal Akt1 (clone D9R8K, dilution 1:500); rabbit polyclonal 4E-BP1 (dilution 1:500); and rabbit polyclonal mTOR (dilution 1:500), all from Cell Signaling (Cell Signaling Technology, Inc., Danvers, MA, USA).

[2] = system: phospho-mTOR, at site S2448; assay: as above; assay type: cell-based, human; conditions: increasing concentrations (0.5 and 5 µM), 24 and 48 h, OCI-AML3, IMS-M2, OCI-AML2
Procedure: as §1, §2

[3] = system: phospho-AKT, at site S473; assay: as above; assay type: cell-based, human
Procedure: as §1, §2

[4] = Solubility screen assay to determine chemical aggregation (nephelometry); assay type: physicochemical; conditions: AKT1 assay buffer pH 7.5, 37 °C, 2 h, NEPHELOstar Plus
Procedure: The stock solutions (10–2 M) of the compound T126 were diluted to a decreased molarity, from 100 µM to 0.0001 µM, in 384-well transparent plates (Greiner 781801) with 1% DMSO: 99% buffer Hepes 100 mM, DMSO 4%, Brij 0.003%, Tween 20 0.004%, MgCl2 10 mM, at a pH = 7.5. Incubation occurred at 37 °C and the results were read after 2 h in a NEPHELOstar Plus (BMG LABTECH, Ortenberg, Germany). The results were adjusted to a segmented regression to obtain the maximum concentration in which the compounds were soluble.

OCI-AML2 [5] = assay: Cell growth, viable cell count by trypan blue exclusion; assay type: cell-based, human; conditions: OCI-AML2, 5 µM, at 48 and 72 h
[6] = Intrinsic fluorescence assay; assay type: physicochemical; conditions: excitation/emission 485–535 nm, AKT1 assay buffer, 2 h 37 °C
Procedure: Compound T126 was serially diluted in 384-well black plates with Hepes 100 mM, DMSO 4%, Brij 0.003%, Tween 20 0.004%, MgCl2 10 mM, at a pH = 7.5 and incubated for 2 h at 37 °C. After the incubation time the intensity of fluorescence (λexc: 485 nm; λemm: 535 nm) was detected in a Tecan M1000 Pro.

cleaved-PARP = assay: Western blot of apoptosis marker in AML cell lines; assay type: cell-based, human; conditions: 5 µM, 48 h
Procedure: as §1, with “indicated. […]” for “indicated.”

OCI-AML3 = assay: Apoptosis by flow cytometry (Annexin V/7AAD); assay type: cell-based, human; conditions: OCI-AML3, 5 µM, 48 h
Procedure: (§3) The cell apoptosis was assessed using Annexin V APC- or FITC-conjugated antibodies and counterstained with Propidium Iodide (PI) or 7AAD for the detection of necrotic cells (Becton Dickinson, Franklin Lakes, NJ, USA), according to the manufacturer’s protocol. The data acquisition and analysis were done with a FACS Canto II flow cytometer and data were acquired and analyzed using Diva software (Becton Dickinson, Franklin Lakes, NJ, USA).

OCI-AML2 [7] = assay: Apoptosis by flow cytometry (Annexin V/7AAD); assay type: cell-based, human; conditions: OCI-AML2, 5 µM, 48 h
Procedure: as §3

IMS-M2 = assay: Apoptosis by flow cytometry (Annexin V/7AAD); assay type: cell-based, human; conditions: IMS-M2, 5 µM, 48 h
Procedure: as §3

- concentration up to which no aggregation occurs [4]: ≥ 100 µM
- intrinsic fluorescence [6]: not fluorescent
SMILES: O=c1[nH]c(-c2ccc(O)c(O)c2)nc2sc3c(c12)CCCC3 [T126]
- phosphorylation of 4E-BP1 (S65) [1]: reduction of its phosphorylation levels
- phosphorylation of mTOR (S2448) [2]: decreased phosphorylation
- inhibition of p-AKT ([3]; OCI-AML3, 4 h, 1 and 2.5 µM): inhibition of p-AKT was already observed
- phosphorylation of AKT1 (S473) ([3]; increasing concentrations (0.5 and 5 µM), 24 and 48 h, OCI-AML3, IMS-M2, OCI-AML2): decreased phosphorylation
- cell growth inhibition (OCI-AML2 [5]): significant cell growth inhibition
- cleaved-PARP (marker of apoptosis) (cleaved-PARP): detected
- induction of apoptosis (OCI-AML3): significant level of apoptosis
- induction of apoptosis (OCI-AML2 [7]): significant level of apoptosis
- induction of apoptosis (IMS-M2): significant level of apoptosis
